Measured values reported in ChEMBL document CHEMBL5724914, “Linking interpersonal differences in gut microbiota composition and drug biotransformation activity” (2024).

Conditions: human gut metagenome, 24 h, 2 µM
Also: call rule not given here.

Row | SMILES | Bacterial Biotransformation
1 | O=C(CCCN1CCC2(CC1)C(=O)NCN2c1ccccc1)c1ccc(F)cc1 [SPIPERONE] | Compound NOT metabolized
2 | O=C1C(CC[S+]([O-])c2ccccc2)C(=O)N(c2ccccc2)N1c1ccccc1 (stereo not given) [SULFINPYRAZONE] | Compound metabolized

Conditions: human gut metagenome, 24 h, 2 µM
Remark: another data set of the same source

Row | SMILES | Bacterial Biotransformation
3 | O=C(CCCN1CCC2(CC1)C(=O)NCN2c1ccccc1)c1ccc(F)cc1 [SPIPERONE] | Compound metabolized
4 | O=C1C(CC[S+]([O-])c2ccccc2)C(=O)N(c2ccccc2)N1c1ccccc1 (stereo not given) [SULFINPYRAZONE] | Compound metabolized

Assay: (§1) The drug is tested on Z-027 corresponding to metagenome with ENA study accession number: PRJEB37062 and ENA sample accession number: ERS12561826 for biotransformation under anaerobic condition. The drug concentrations were measured over 9 timepoints collected between 0 and 24 hours of incubation by liquid-chromatography-coupled mass spectrometry (LC–MS)
Conditions: 2 µM

Row | SMILES | Bacterial Biotransformation
5 | O=C(CCCN1CCC2(CC1)C(=O)NCN2c1ccccc1)c1ccc(F)cc1 [SPIPERONE] | Compound NOT metabolized
6 | O=C1C(CC[S+]([O-])c2ccccc2)C(=O)N(c2ccccc2)N1c1ccccc1 (stereo not given) [SULFINPYRAZONE] | Compound NOT metabolized

Assay: (§2) The drug is tested on Z-011 corresponding to mouse gut metagenome with ENA study accession number: PRJEB37062 and ENA sample accession number: ERS12561811 for biotransformation under anaerobic condition. The drug concentrations were measured over 9 timepoints collected between 0 and 24 hours of incubation by liquid-chromatography-coupled mass spectrometry (LC–MS)
Conditions: 2 µM

Row | SMILES | Bacterial Biotransformation
7 | O=C(CCCN1CCC2(CC1)C(=O)NCN2c1ccccc1)c1ccc(F)cc1 [SPIPERONE] | Compound NOT metabolized
8 | O=C1C(CC[S+]([O-])c2ccccc2)C(=O)N(c2ccccc2)N1c1ccccc1 (stereo not given) [SULFINPYRAZONE] | Compound NOT metabolized

Conditions: human gut metagenome, 24 h, 2 µM
Remark: another data set of the same source

Row | SMILES | Bacterial Biotransformation
9 | O=C(CCCN1CCC2(CC1)C(=O)NCN2c1ccccc1)c1ccc(F)cc1 [SPIPERONE] | Compound NOT metabolized
10 | O=C1C(CC[S+]([O-])c2ccccc2)C(=O)N(c2ccccc2)N1c1ccccc1 (stereo not given) [SULFINPYRAZONE] | Compound metabolized

Conditions: human gut metagenome, 24 h, 2 µM
Remark: another data set of the same source

Row | SMILES | Bacterial Biotransformation
11 | O=C(CCCN1CCC2(CC1)C(=O)NCN2c1ccccc1)c1ccc(F)cc1 [SPIPERONE] | Compound metabolized
12 | O=C1C(CC[S+]([O-])c2ccccc2)C(=O)N(c2ccccc2)N1c1ccccc1 (stereo not given) [SULFINPYRAZONE] | Compound metabolized

Conditions: human gut metagenome, 24 h, 2 µM
Remark: another data set of the same source

Row | SMILES | Bacterial Biotransformation
13 | O=C(CCCN1CCC2(CC1)C(=O)NCN2c1ccccc1)c1ccc(F)cc1 [SPIPERONE] | Compound NOT metabolized
14 | O=C1C(CC[S+]([O-])c2ccccc2)C(=O)N(c2ccccc2)N1c1ccccc1 (stereo not given) [SULFINPYRAZONE] | Compound metabolized

Conditions: human gut metagenome, 24 h, 2 µM
Remark: another data set of the same source

Row | SMILES | Bacterial Biotransformation
15 | O=C(CCCN1CCC2(CC1)C(=O)NCN2c1ccccc1)c1ccc(F)cc1 [SPIPERONE] | Compound NOT metabolized
16 | O=C1C(CC[S+]([O-])c2ccccc2)C(=O)N(c2ccccc2)N1c1ccccc1 (stereo not given) [SULFINPYRAZONE] | Compound metabolized

Assay: as §2, with “Z-016” for “Z-011”, “ERS12561815” for “ERS12561811”
Conditions: 2 µM

Row | SMILES | Bacterial Biotransformation
17 | O=C(CCCN1CCC2(CC1)C(=O)NCN2c1ccccc1)c1ccc(F)cc1 [SPIPERONE] | Compound NOT metabolized
18 | O=C1C(CC[S+]([O-])c2ccccc2)C(=O)N(c2ccccc2)N1c1ccccc1 (stereo not given) [SULFINPYRAZONE] | Compound NOT metabolized

Conditions: human gut metagenome, 24 h, 2 µM
Remark: another data set of the same source

Row | SMILES | Bacterial Biotransformation
19 | O=C(CCCN1CCC2(CC1)C(=O)NCN2c1ccccc1)c1ccc(F)cc1 [SPIPERONE] | Compound NOT metabolized
20 | O=C1C(CC[S+]([O-])c2ccccc2)C(=O)N(c2ccccc2)N1c1ccccc1 (stereo not given) [SULFINPYRAZONE] | Compound metabolized

Conditions: human gut metagenome, 24 h, 2 µM
Remark: another data set of the same source

Row | SMILES | Bacterial Biotransformation
21 | O=C(CCCN1CCC2(CC1)C(=O)NCN2c1ccccc1)c1ccc(F)cc1 [SPIPERONE] | Compound metabolized
22 | O=C1C(CC[S+]([O-])c2ccccc2)C(=O)N(c2ccccc2)N1c1ccccc1 (stereo not given) [SULFINPYRAZONE] | Compound metabolized

Assay: as §2, with “WLS-098” for “Z-011”, “human” for “mouse”, “ERS12561754” for “ERS12561811”
Conditions: 2 µM

Row | SMILES | Bacterial Biotransformation
23 | O=C(CCCN1CCC2(CC1)C(=O)NCN2c1ccccc1)c1ccc(F)cc1 [SPIPERONE] | Compound metabolized
24 | O=C1C(CC[S+]([O-])c2ccccc2)C(=O)N(c2ccccc2)N1c1ccccc1 (stereo not given) [SULFINPYRAZONE] | Compound metabolized

Assay: as §2, with “WLS-069” for “Z-011”, “human” for “mouse”, “ERS12561748” for “ERS12561811”
Conditions: 2 µM

Row | SMILES | Bacterial Biotransformation
25 | O=C(CCCN1CCC2(CC1)C(=O)NCN2c1ccccc1)c1ccc(F)cc1 [SPIPERONE] | Compound metabolized
26 | O=C1C(CC[S+]([O-])c2ccccc2)C(=O)N(c2ccccc2)N1c1ccccc1 (stereo not given) [SULFINPYRAZONE] | Compound metabolized

Assay: as §1, with “Z-012” for “Z-027”, “ERS12561812” for “ERS12561826”
Conditions: 2 µM

Row | SMILES | Bacterial Biotransformation
27 | O=C(CCCN1CCC2(CC1)C(=O)NCN2c1ccccc1)c1ccc(F)cc1 [SPIPERONE] | Compound NOT metabolized
28 | O=C1C(CC[S+]([O-])c2ccccc2)C(=O)N(c2ccccc2)N1c1ccccc1 (stereo not given) [SULFINPYRAZONE] | Compound NOT metabolized

Assay: as §2, with “WLS-240” for “Z-011”, “human” for “mouse”, “ERS12561773” for “ERS12561811”
Conditions: 2 µM

Row | SMILES | Bacterial Biotransformation
29 | O=C(CCCN1CCC2(CC1)C(=O)NCN2c1ccccc1)c1ccc(F)cc1 [SPIPERONE] | Compound NOT metabolized
30 | O=C1C(CC[S+]([O-])c2ccccc2)C(=O)N(c2ccccc2)N1c1ccccc1 (stereo not given) [SULFINPYRAZONE] | Compound metabolized

Assay: as §2, with “Z-002” for “Z-011”, “rabbit” for “mouse”, “ERS12561802” for “ERS12561811”
Conditions: 2 µM

Row | SMILES | Bacterial Biotransformation
31 | O=C(CCCN1CCC2(CC1)C(=O)NCN2c1ccccc1)c1ccc(F)cc1 [SPIPERONE] | Compound NOT metabolized
32 | O=C1C(CC[S+]([O-])c2ccccc2)C(=O)N(c2ccccc2)N1c1ccccc1 (stereo not given) [SULFINPYRAZONE] | Compound metabolized

Assay: as §2, with “Z-024” for “Z-011”, “pig” for “mouse”, “ERS12561823” for “ERS12561811”
Conditions: 2 µM

Row | SMILES | Bacterial Biotransformation
33 | O=C(CCCN1CCC2(CC1)C(=O)NCN2c1ccccc1)c1ccc(F)cc1 [SPIPERONE] | Compound NOT metabolized
34 | O=C1C(CC[S+]([O-])c2ccccc2)C(=O)N(c2ccccc2)N1c1ccccc1 (stereo not given) [SULFINPYRAZONE] | Compound metabolized

Assay: as §2, with “WLS-038” for “Z-011”, “human” for “mouse”, “ERS12561745” for “ERS12561811”
Conditions: 2 µM

Row | SMILES | Bacterial Biotransformation
35 | O=C(CCCN1CCC2(CC1)C(=O)NCN2c1ccccc1)c1ccc(F)cc1 [SPIPERONE] | Compound NOT metabolized
36 | O=C1C(CC[S+]([O-])c2ccccc2)C(=O)N(c2ccccc2)N1c1ccccc1 (stereo not given) [SULFINPYRAZONE] | Compound metabolized

Conditions: human gut metagenome, 24 h, 2 µM
Remark: another data set of the same source

Row | SMILES | Bacterial Biotransformation
37 | O=C(CCCN1CCC2(CC1)C(=O)NCN2c1ccccc1)c1ccc(F)cc1 [SPIPERONE] | Compound NOT metabolized
38 | O=C1C(CC[S+]([O-])c2ccccc2)C(=O)N(c2ccccc2)N1c1ccccc1 (stereo not given) [SULFINPYRAZONE] | Compound metabolized

Assay: as §2, with “Z-029” for “Z-011”, “rat” for “mouse”, “ERS12561828” for “ERS12561811”
Conditions: 2 µM

Row | SMILES | Bacterial Biotransformation
39 | O=C(CCCN1CCC2(CC1)C(=O)NCN2c1ccccc1)c1ccc(F)cc1 [SPIPERONE] | Compound NOT metabolized
40 | O=C1C(CC[S+]([O-])c2ccccc2)C(=O)N(c2ccccc2)N1c1ccccc1 (stereo not given) [SULFINPYRAZONE] | Compound NOT metabolized
